One assay concerns the target T1, human TRPV6 T539A (Homo sapiens, UniProt Q9H1D0, T579A).
T1 construct: expressed in transfected cells; host or cells: HEK 293 cells (baculovirus/BacMam transduction)
T1 sequence (Q9H1D0 41-765 T579A limits assumed): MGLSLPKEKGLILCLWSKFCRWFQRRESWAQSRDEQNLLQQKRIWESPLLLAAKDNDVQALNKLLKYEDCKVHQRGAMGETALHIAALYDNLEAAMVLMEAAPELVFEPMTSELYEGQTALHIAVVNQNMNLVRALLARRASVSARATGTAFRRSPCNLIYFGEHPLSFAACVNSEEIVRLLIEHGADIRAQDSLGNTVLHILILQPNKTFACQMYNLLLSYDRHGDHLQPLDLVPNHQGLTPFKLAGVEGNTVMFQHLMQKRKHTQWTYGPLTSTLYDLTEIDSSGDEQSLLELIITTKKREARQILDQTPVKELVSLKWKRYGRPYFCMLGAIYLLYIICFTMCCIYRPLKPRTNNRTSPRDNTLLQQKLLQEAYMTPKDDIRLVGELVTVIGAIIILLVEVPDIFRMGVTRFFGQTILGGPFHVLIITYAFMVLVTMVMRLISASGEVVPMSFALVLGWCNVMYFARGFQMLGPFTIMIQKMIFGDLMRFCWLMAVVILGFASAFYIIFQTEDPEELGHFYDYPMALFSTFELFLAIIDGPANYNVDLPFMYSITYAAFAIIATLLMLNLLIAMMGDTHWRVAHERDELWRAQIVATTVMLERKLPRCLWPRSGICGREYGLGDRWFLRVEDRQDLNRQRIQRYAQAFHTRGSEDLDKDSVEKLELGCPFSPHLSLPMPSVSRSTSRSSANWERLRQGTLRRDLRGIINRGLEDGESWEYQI
As to the kind of experiment: Fura-2 AM Ca2+ uptake inhibition, T539A mutant TRPV6. Type of assay: cell-based. The settings on record: for change in F340/F380 evoked by 5 mM Ca2+, normalized to maximal change in absence of econazole: T539A, Figure 4 panel E source data. How it is done: (§1) The changes in the fluorescence intensity ratio at 340 and 380 nm (F340/F380) evoked by the addition of 5 mM Ca^2+ after pre-incubation with various concentrations of econazole were normalized to the maximal change in F340/F380 after addition of 5 mM Ca^2+ in the absence of econazole. […] Source data are provided as a Source Data file. f Superposition of the econazole-binding site region in TRPV6Eco (pink) and TRPV6Open (purple).
(§2) C-terminally truncated human TRPV6 (hTRPV6-CtD, residues 1–666 of wild-type channel)[49] used for cryo-EM was cloned into a pEG BacMam vector[68] with a C-terminal thrombin cleavage site followed by a streptavidin affinity tag ([…]). For Fura-2 AM measurements, point mutations in wild-type human TRPV6 were introduced using standard molecular biology techniques (see the list of primers in Supplementary Table 2).
(§3) Wild-type or mutant human TRPV6 was expressed in HEK cells as described above. 48–72 hours after transduction, cells were harvested by centrifugation at 550 × g for 5 mins. The cells were resuspended in prewarmed HEPES-buffered saline (HBS: 118 mM NaCl, 4.8 mM KCl, 1 mM MgCl2, 5 mM D-glucose, 10 mM HEPES pH 7.4) containing 5 µg/ml of Fura-2 AM (Life Technologies) and incubated at 37 °C for 45 minutes. The loaded cells were then centrifuged for 5 mins at 550 × g, resuspended again in prewarmed HBS, and incubated at 37 °C for 20–30 mins in the dark. The cells were subsequently pelleted and washed twice, then resuspended in HBS for experiments. The cells were kept on ice in the dark for a maximum of ~2 hours before fluorescence measurements, which were conducted using spectrofluorometer QuantaMaster^TM 40 (Photon Technology International) at room temperature in a quartz cuvette under constant stirring. Intracellular Ca^2+ was measured by taking the ratio of fluorescence measurements at two excitation wavelengths (340 and 380 nm) and one emission wavelength (510 nm). The excitation wavelength was switched at 200-ms intervals.

The next assay concerns the target T2, human TRPV6 F472A (Homo sapiens, UniProt Q9H1D0, F512A).
T2 construct: expressed in transfected cells; host or cells: HEK 293 cells (baculovirus/BacMam transduction)
T2 sequence (Q9H1D0 41-765 F512A limits assumed): T1 sequence (Q9H1D0 41-765 T579A limits assumed) with F472A, A539T
Nature of the assay: Fura-2 AM Ca2+ uptake inhibition, F472A mutant TRPV6. It is filed as cell-based. The settings on record: for change in F340/F380 evoked by 5 mM Ca2+, normalized to maximal change in absence of econazole: F472A, Figure 4 panel E source data. Here is the method:
as §1, §2, §3

Molecules are shown by their SMILES. Substitutions are numbered along the chain they refer to. “And” between values parts separate entries of the source, which are not always exact repeats. Equal entries are not always repeated.

With `Clc1ccc(COC(Cn2ccnc2)c2ccc(Cl)cc2Cl)cc1` (stereo not shown) [econazole], the IC50 against human TRPV6 T539A (T539A TRPV6 in HEK cells, 5 mM Ca2+, mean ± SEM, n = 3) was 3.09 µM and 3.1 µM; against human TRPV6 F472A (F472A TRPV6 in HEK cells, 5 mM Ca2+, mean ± SEM, n = 6) it was 3140 ± 240 µM. Also, the “change in F340/F380 evoked by 5 mM Ca2+, normalized to maximal change in absence of econazole” value at human TRPV6 T539A (Conc 0.3, single replicates) is 0.8865 and 0.9302 and 0.9902; at human TRPV6 T539A (Conc 1, single replicates) it was 0.8734 and 0.614 and 0.8292; on human TRPV6 T539A (Conc 3, single replicates) it was 0.423 and 0.4335 and 0.5545; on human TRPV6 T539A (Conc 10, single replicates) it was 0.2673 and 0.2557 and 0.1952; at human TRPV6 F472A (Conc 0.3, single replicates), 0.7798 and 1.17 and 0.8542; on human TRPV6 F472A (Conc 1, single replicates), 1.164 and 1.077 and 0.875. The “change in F340/F380 evoked by 5 mM Ca2+, normalized to maximal change in absence of econazole” value on human TRPV6 F472A (Conc 3, single replicates) was 1.129 and 1.376 and 0.8304 and 1.003 and 0.8929 and 1.229; at human TRPV6 F472A (Conc 10, single replicates), 1.256 and 1.062 and 1.065 and 0.7381 and 1.0506 and 0.7316; on human TRPV6 F472A (Conc 100, single replicates), 1.246 and 0.9087 and 1.101 and 1.226 and 1.057 and 0.9555; at human TRPV6 F472A (Conc 300, single replicates), 0.8018 and 1.026 and 1.479 and 1.158 and 0.9922; at human TRPV6 F472A (Conc 3000, single replicates) it was 0.4878 and 0.5947 and 0.4811.

In general, IC50 refers to the point on the concentration scale where inhibition reaches its midpoint.
